Ends that are not written are not given here.
Experiments:
[1] = biological target: T1, neutral endopeptidase (Rattus norvegicus, UniProt P07861); experiment: biochemical; conditions: enzyme purified from rat kidney; Dns-Gly-Phe-Arg 0.5 mM; pH 7.5; 37°, 30 minutes; inhibitor preincubated 10 minutes
T1 sequence (P07861 1-750): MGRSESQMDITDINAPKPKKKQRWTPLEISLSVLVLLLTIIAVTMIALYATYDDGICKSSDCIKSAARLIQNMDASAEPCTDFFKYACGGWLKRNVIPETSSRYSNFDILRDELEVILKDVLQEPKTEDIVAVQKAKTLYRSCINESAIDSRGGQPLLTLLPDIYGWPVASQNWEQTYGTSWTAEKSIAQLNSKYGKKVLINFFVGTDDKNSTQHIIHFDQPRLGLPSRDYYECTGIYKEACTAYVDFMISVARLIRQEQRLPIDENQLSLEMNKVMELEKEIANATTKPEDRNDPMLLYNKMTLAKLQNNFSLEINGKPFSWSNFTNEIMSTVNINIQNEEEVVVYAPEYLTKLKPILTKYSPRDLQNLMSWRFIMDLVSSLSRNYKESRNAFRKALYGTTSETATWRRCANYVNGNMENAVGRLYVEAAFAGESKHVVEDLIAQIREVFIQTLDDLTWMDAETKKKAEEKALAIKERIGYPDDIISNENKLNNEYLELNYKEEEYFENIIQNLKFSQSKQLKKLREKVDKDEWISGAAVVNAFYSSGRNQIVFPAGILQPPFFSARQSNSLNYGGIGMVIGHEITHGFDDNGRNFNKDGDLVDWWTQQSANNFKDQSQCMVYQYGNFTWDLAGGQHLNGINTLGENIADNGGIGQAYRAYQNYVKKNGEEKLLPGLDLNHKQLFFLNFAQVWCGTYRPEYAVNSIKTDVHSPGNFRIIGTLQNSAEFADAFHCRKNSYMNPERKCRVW
Method: The in vitro neutral endopeptidase activity is determined using a fluorometric assay procedure. The assay is based upon the cleavage of the fluorescent dansylated tripeptide Dns-Gly-Phe-Arg to form Dns-Gly. The latter is extracted from the acidified mixture by ethyl acetate and is strongly fluorescent.
The incubation mixture employed for the assay contains the substance Dns-Gly-Phe-Arg (0.5 mM), tris(hydroxymethyl)aminomethane -HCl buffer (pH 7.5, 50 mM), an enzyme preparation in 0.05% Triton X-100, and water or inhibitor diluted to a final volume of 0.25 ml. The enzyme preparation is purified from rat kidney according to the procedure described by Almenoff et al. in Biochemistry Vol. 22, p. 590-599 (1983). The inhibitor is preincubated for 10 minutes with the enzyme preparation and buffer before the reaction is initiated by the addition of the substrate. Incubation is carried out at 37° for 30 minutes and the reaction is stopped by the addition of 0.25 ml. 1N HCl and extraction of the Dns-Gly product into 1.5 ml. of ethyl acetate. Relative fluorescent intensity (RFI) of the ethyl acetate extract is measured using a Ferrand Spectofluorometer at excitation and emission wavelengths of 342 and 508 nm., respectively, corrected for the RFI of a zero-time control, and compared with assays lacking inhibitor.
Runs are made at different concentrations of test compound and by use of a mathematical model the IC50 is determined. The IC50 is the concentration of test compound that inhibits activity of the enzyme by 50%.

[2] = system: conscious mineralocorticoid hypertensive rats; experiment: depressor response in conscious mineralocorticoid hypertensive rats; assay type: in vivo, rat (male Sprague-Dawley); conditions: dose 300 μmole/kg., intravenous; DOCA hypertensive rats; MAP recorded for at least 4 hours
Method: The depressor response to test compounds in conscious mineralocorticoid hypertensive rats is determined according to the following procedure.
Male Sprague-Dawley rats (approximately 150 grams) are anesthetized with sodium pentobarbital and indwelling vascular catheters are implanted in the abdominal aorta and vena cava using the methods of Weeks et al., Biological Medicine, Vol. 104, p. 646 (1960).
Before closing the abdominal incision, a pellet containing 100 mg. of deoxycorticosterone acetate (DOCA) is placed in the peritoneal cavity. DOCA is released from the pellet at a constant rate for 21 days.
The rats are housed individually and given saline (0.9% sodium chloride) to drink and fed normal rat chow for the next 3 to 4 weeks. Afterwards, the catheters are opened and mean arterial pressure (MAP) is measured via a Statham pressure transducer and a strip chart recorder. Patency of the arterial catheter is maintained by the infusion of saline from a pressurized reservoir at approximately 10 to 15 μl/min.
Following 2 hours of acclimation, the test compound is injected intravenously. Each dose is delivered as 1.0 ml./kg. +0.03 ml. (an amount sufficient to fill the void volume of the catheter). The MAP is recorded for at least 4 hours.

[3] = system: conscious spontaneously hypertensive rats (SHR); experiment: enhancement of the depressor response to exogenous ANP 99-126 in conscious spontaneously hypertensive rats (SHR); assay type: in vivo, rat (male SHR); conditions: intravenous, 30 minutes before 3 nmole/kg. ANP 99-126; dose to increase the area under the blood pressure over time curve to 600 mm Hg. X minute
Method: The capacity of the test compounds to enhance the depressor response to exogenous ANP 99-126 in conscious spontaneously hypertensive rats (SHR) is determined according to the following procedure.
Indwelling vascular catheters are implanted in the abdominal aorta and vena cava of male SHR rats using the methods of Weeks et al. The rat is allowed at least one week recovery time. On the day of the experiment, the aortic catheter is opened and attached to a Statham transducer via a 3-way stream divider. This system allows for a continuous slow infusion of saline (approximately 10 to 15 μl/min.) from a pressurized reservoir to maintain patency of the arterial catheter. Mean arterial pressure (MAP) is continuously monitored on a strip-chart recorder.
Two hours after beginning the blood pressure measurements, the test compound (or the vehicle used to dissolve the compound) is injected intravenously (1.0 ml./kg.) and flushed in with 0.3 ml. of saline. 30 minutes later, a challenge of 3 nmole/kg. of ANP 99-126 is delivered (1.0 ml./kg. +0.3 ml. saline flush). Sufficient time is allowed after the ANP 99-126 injection to observe the maximal depressor response and a 50% recovery.
MAP is determined before ANP 99-126 administration and at 5 minute intervals until the blood pressure recovers by at least 50%. A mathematical model is used to calculate the area under the curve which extends from the time that the MAP falls to 50% of the maximal depressor response to the time of 50% recovery. Results are plotted as the log dose of inhibitor vs. the area under the curve.
The ED600 is the dose required to increase the area under the blood pressure over time curve for exogenous ANP to 600 mm Hg. X minute.

[4] = system: conscious spontaneously hypertensive rats; experiment: renal function (sodium excretion) following intravenous administration of test compounds; assay type: in vivo, rat
Method: The renal function following administration of test compounds is determined according to the following procedure.
A catheter is contructed as follows. Pieces of 18 gauge metal tubing (about 1/4 inch in length) are inserted into two lengths of microbore Tygon tubing (0.04 inch inner diameter ×0.07 inch outer diameter). A short segment of Tygon tubing of larger diameter (0.104 inch inner diameter x 0.144 inch outer diameter) is sealed around both metal fittings. This end is to be implanted in the bladder. In order to keep the tip from becoming plugged by particulate matter, 4 holes are punched along its length.
To implant the catheters, male rats are anesthetized with sodium pentobarbital and the urinary bladder is exposed via a midline abdominal incision. A small slit is made in the dome of the urinary bladder and the tip of the catheter is inserted into the lumen. […]
During the course of the experiment, urine is collected in tared containers at specified intervals. Urine volume is determined gravimetrically (1 gram =1 ml.) and the rate of flow is calculated from the total volume/time of collection (ml./min). Sodium concentrations are measured using a Nova-1 Ion Selective Electrode Analyzer. Electrolyte excretion rates (μ Eq./min.) are calculated by multiplying the ion concentration (μ Eq./ml.) by the urine flow (mi./min.). […]

[5] = system: neutral endopeptidase; experiment: inhibition of neutral endopeptidase; assay type: biochemical
[6] = system: neutral endopeptidase; conditions: in vivo; cited from earlier work
[7] = system: pig kidney microvillar membranes; conditions: in vitro; cited from earlier work
[8] = system: enkephalinase; conditions: cited from earlier work
[9] = system: man; conditions: cited from earlier work

CC(C)CC(CS)C(=O)N[C@@H](Cc1c[nH]c2ccccc12)C(=O)O (mixture of isomers) [Example 35, (±)-N-[2-(Mercaptomethyl)-4-methyl-1-oxopentyl]-L-tryptophan]
IC50 [1]: 6.9 nM
Change in MAI [2]: -56 ± 3 mm. of Hg.
ED600 [3]: 9.2 µmol/kg

C[C@H](NC(=O)C(CS)Cc1ccccc1)C(=O)N1CCC[C@H]1C(=O)O (mixture of isomers) [Example 64, (±)-1-[N-[2-(Mercaptomethyl)-1-oxo-3-phenylpropyl]-L-alanyl]-L-proline]
IC50 [1]: 6 nM
Change in MAI [2]: -44 ± 5 mm. of Hg.

CC(C)C[C@H](NC(=O)C(CS)Cc1ccccc1)C(=O)O (single isomer, unassigned; isomer a) [Example 1, N-[2-(Mercaptomethyl)-1-oxo-3-phenylpropyl]-L-leucine (Isomer A)]
Change in MAI [2]: -65 ± 14 mm. of Hg.
ED600 [3]: 22.8 µmol/kg
increase in sodium excretion ([4]; intravenous 100 mg./kg.): 2.4 fold

CC(C)C[C@H](NC(=O)C(CS)Cc1ccccc1)C(=O)O (single isomer, unassigned; isomer b) [Example 36, N-[2-(Mercaptomethyl)-1-oxo-3-phenylpropyl]-L-leucine (isomer B)]
ED600 [3]: 8.22 µmol/kg

C[C@H](CS)C(=O)N[C@@H](Cc1ccccc1)C(=O)O [Example 39, (S)-N-(3-Mercapto-2-methyl-1-oxopropyl)-L-phenylalanine]
IC50 [1]: 15 nM
Change in MAI [2]: -55 ± 4 mm. of Hg.

O=C(O)CCCCCCNC(=O)C(CS)Cc1ccccc1 (centres unmarked) [Example 52, 7-[[2-(Mercaptomethy1)-1-oxo-3-phenylpropyl]amino]-heptanoic acid]
IC50 [1]: 26 nM
Change in MAI [2]: -41 ± 8 mm. of Hg.
ED600 [3]: 15.5 µmol/kg
increase in the rate of sodium excretion ([4]; intravenous 30 mg./kg. plus 3 mg./kg./min. for 20 minutes, conscious spontaneously hypertensive rats): 2.6 fold

C[C@H](NC(=O)[C@@H](S)Cc1ccccc1)C(=O)N1CCC[C@H]1C(=O)O [Example 66, (S)-1-[N-(2-Mercapto-1-oxo-3-phenylpropyl)-L-alanyl]-L-proline]
IC50 [1]: 78 nM
ED600 [3]: 2.93 µmol/kg

CC(C)C[C@H](NP(=O)(O)O[C@@H]1O[C@@H](C)[C@H](O)[C@@H](O)[C@H]1O)C(=O)N[C@@H](Cc1c[nH]c2ccccc12)C(=O)O [Example 72, N-(α-L-Rhamnopyranosyloxyhydroxyphosphinyl)-L-leucyl-L-tryptophan]
IC50 [1]: 3.8 nM
inhibition of neutral endopeptidase [5]: inhibits neutral endopeptidase
excretion of kinins [6]: increased excretion of kinins
sodium excretion [6]: increased sodium excretion
urinary kininase activity [6]: decreased urinary kininase activity
urine volume [6]: increased urine volume
hydrolysis of α-human atrial natriuretic peptide [7]: suppressed

O=C(O)CNC(=O)C(CS)Cc1ccccc1 (centres unmarked) [thiorphan, [(D,L)-3-mercapto-2-benzylpropanol]glycine]
inhibitor of enkephalinase in vitro [8]: nanomolar concentrations

human ANF 99-126: putative circulating hormone in man, a 28 amino acid peptide called human ANF 99-126 (SLRRSSCFGGRMDRIGAQSGLGCNSFRY; ends and bridges not checked; cysteine pairing not given here; UniProt P01160 124-151, looked up)
effect of exogenous administration to man [9]: diuresis, natriuresis, and a fall in blood pressure
